In ChEMBL document CHEMBL2074470, “P-glycoprotein-mediated transport of itraconazole across the blood-brain barrier” (Antimicrob Agents Chemother, 1998):

Target: ATP-dependent translocase ABCB1 (Mus musculus, UniProt P21447)
Assay: TP_TRANSPORTER: increase in brain concentration in mdr1a(-/-) mouse
Assay type: functional, organism-based
Conditions: in vivo

ATP-dependent translocase ABCB1, sequence (P21447 whole entry): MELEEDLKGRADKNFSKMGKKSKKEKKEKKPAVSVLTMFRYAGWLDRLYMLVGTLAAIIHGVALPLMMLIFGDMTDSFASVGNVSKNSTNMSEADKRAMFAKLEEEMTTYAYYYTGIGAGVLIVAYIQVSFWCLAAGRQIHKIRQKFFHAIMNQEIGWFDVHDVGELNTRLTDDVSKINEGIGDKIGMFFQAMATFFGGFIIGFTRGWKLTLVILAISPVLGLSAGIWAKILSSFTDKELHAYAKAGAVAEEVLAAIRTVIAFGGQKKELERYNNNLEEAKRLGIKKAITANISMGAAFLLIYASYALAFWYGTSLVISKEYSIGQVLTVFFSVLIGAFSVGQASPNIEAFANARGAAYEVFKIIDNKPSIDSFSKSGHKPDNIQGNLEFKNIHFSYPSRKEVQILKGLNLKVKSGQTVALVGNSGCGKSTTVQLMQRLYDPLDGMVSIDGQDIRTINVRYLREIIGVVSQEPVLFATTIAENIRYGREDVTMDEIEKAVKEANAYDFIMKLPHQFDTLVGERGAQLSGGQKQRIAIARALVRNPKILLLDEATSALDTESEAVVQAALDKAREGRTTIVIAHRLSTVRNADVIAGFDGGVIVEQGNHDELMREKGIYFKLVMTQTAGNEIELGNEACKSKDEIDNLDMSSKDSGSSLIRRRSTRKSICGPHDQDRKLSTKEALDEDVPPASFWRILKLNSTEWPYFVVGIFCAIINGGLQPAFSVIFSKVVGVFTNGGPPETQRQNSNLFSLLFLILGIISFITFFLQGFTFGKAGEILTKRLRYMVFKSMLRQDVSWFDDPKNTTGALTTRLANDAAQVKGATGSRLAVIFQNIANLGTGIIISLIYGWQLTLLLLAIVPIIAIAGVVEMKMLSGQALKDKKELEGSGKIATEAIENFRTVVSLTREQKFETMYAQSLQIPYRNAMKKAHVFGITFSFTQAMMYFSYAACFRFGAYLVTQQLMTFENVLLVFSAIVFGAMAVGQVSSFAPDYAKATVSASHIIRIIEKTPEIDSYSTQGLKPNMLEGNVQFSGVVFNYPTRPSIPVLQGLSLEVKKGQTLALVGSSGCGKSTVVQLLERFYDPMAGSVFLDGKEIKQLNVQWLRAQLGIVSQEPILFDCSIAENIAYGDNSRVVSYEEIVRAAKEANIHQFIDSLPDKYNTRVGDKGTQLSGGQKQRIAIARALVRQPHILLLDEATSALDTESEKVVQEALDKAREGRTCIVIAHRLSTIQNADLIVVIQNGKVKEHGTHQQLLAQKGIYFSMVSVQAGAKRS

Activity: substrate [+]
Structure (SMILES): CCC(C)n1ncn(-c2ccc(N3CCN(c4ccc(OCC5COC(Cn6cncn6)(c6ccc(Cl)cc6Cl)O5)cc4)CC3)cc2)c1=O (stereo unspecified) [ITRACONAZOLE]
